In PMC4785407, “Reduction Impairs the Antibacterial Activity but Benefits the LPS Neutralization Ability of Human Enteric Defensin 5” (Scientific Reports, 2016):
Bridge positions count the residues as written; N and C are the ends. Peptide text beside a SMILES is read from it.

Experiments:
human thioredoxin (Trx) = experiment: HD5OX reduction by thioredoxin in vitro, LC-MS; format: biochemical; settings: 30 μM HD5OX, 15 μM human Trx, 500 nM rat liver TrxR, 1 mM NADPH, 2 mM EDTA, pH 7.0, room temperature, 1 h
Procedure: A mixture of 30 μM HD5OX, 15 μM human thioredoxin (Trx, Prospec PRO569), 500 nM rat liver thioredoxin reductase (TrxR, Sigma T9698), 1 mM NADPH (Sigma N5130), and 2 mM EDTA was incubated in 100 mM sodium phosphate buffer (pH 7.0) at room temperature for 1 h. The reaction was quenched by adding 6% trifluoroacetic acid (TFA). The solution was then centrifuged (10,000 g × 10 min) at 4 °C and analyzed with an Agilent 6410 liquid chromatography-mass spectrometry (LC-MS) instrument using a linear gradient of 5–45% acetonitrile that contained 0.1% TFA.

HIV gp-120 = settings: cited from earlier work
[1] = tested on: E. coli ML35 inner membrane; experiment: Inner membrane permeabilization (ONPG); format: cell-based; settings: 6.25 and 12.5 μg/mL, 37 °C, 2 h, absorbance 405 nm, vs HD5OX
Procedure: The production of 2-nitrophenol (ONP), a marker of inner membrane penetration, was determined by measuring the absorbance at 405 nm.

Compound	reduction by Trx (human thioredoxin (Trx))	binding and inhibition of HIV gp-120 (HIV gp-120)	inner membrane disintegration [1]
CC[C@H](C)[C@@H]1NC(=O)[C@H](CCC(=O)O)NC(=O)[C@@H]2CSSC[C@@H]3NC(=O)[C@H](Cc4ccc(O)cc4)NC(=O)[C@@H](NC(=O)[C@@H](NC(=O)[C@H](C)N)[C@@H](C)O)CSSC[C@@H](C(=O)N[C@@H](CCCNC(=N)N)C(=O)O)NC(=O)[C@H](CSSC[C@H](NC(=O)[C@H](CCCNC(=N)N)NC(=O)CNC(=O)[C@H]([C@@H](C)O)NC(=O)[C@H](CCCNC(=N)N)NC3=O)C(=O)N[C@@H](C)C(=O)N[C@@H]([C@@H](C)O)C(=O)N[C@@H](CCCNC(=N)N)C(=O)N[C@@H](CCC(=O)O)C(=O)N[C@@H](CO)C(=O)N[C@@H](CC(C)C)C(=O)N[C@@H](CO)C(=O)NCC(=O)N[C@@H](C(C)C)C(=O)N2)NC(=O)[C@H](CC(C)C)NC(=O)[C@H](CCCNC(=N)N)NC(=O)[C@H](Cc2ccc(O)cc2)NC(=O)[C@H](CC(C)C)NC(=O)[C@H](CCCNC(=N)N)NC(=O)CNC(=O)[C@H](CO)NC1=O [HD5OX, Oxidized human defensin 5] (H-ATCYCRTGRCATRESLSGVCEISGRLYRLCCR-OH; disulfide 3-31, 5-20, 10-30; N-terminus and C-terminus assumed)	Trx catalyzed the reduction of HD5OX in vitro	efficiently bind and inhibit	
CC[C@H](C)[C@H](NC(=O)[C@H](CCC(=O)O)NC(=O)[C@H](CS)NC(=O)[C@@H](NC(=O)CNC(=O)[C@H](CO)NC(=O)[C@H](CC(C)C)NC(=O)[C@H](CO)NC(=O)[C@H](CCC(=O)O)NC(=O)[C@H](CCCNC(=N)N)NC(=O)[C@@H](NC(=O)[C@H](C)NC(=O)[C@H](CS)NC(=O)[C@H](CCCNC(=N)N)NC(=O)CNC(=O)[C@@H](NC(=O)[C@H](CCCNC(=N)N)NC(=O)[C@H](CS)NC(=O)[C@H](Cc1ccc(O)cc1)NC(=O)[C@H](CS)NC(=O)[C@@H](NC(=O)[C@H](C)N)[C@@H](C)O)[C@@H](C)O)[C@@H](C)O)C(C)C)C(=O)N[C@@H](CO)C(=O)NCC(=O)N[C@@H](CCCNC(=N)N)C(=O)N[C@@H](CC(C)C)C(=O)N[C@@H](Cc1ccc(O)cc1)C(=O)N[C@@H](CCCNC(=N)N)C(=O)N[C@@H](CC(C)C)C(=O)N[C@@H](CS)C(=O)N[C@@H](CS)C(=O)N[C@@H](CCCNC(=N)N)C(=O)O [HD5RED] (H-ATCYCRTGRCATRESLSGVCEISGRLYRLCCR-OH)			attenuated potency for disintegrating the bacterial inner membrane
